Reference: patent US20120157401A1, “METHODS FOR TREATING NEUROFIBROMATOSIS” (PTC Therapeutics, Inc., priority 2009, published 2012)
Where two headings read alike, the source gives them in different places. Marks after values point to notes of the source that are not given here.

Key:
[1] = test system: human VEGF121 and VEGF165; test: HT1080 xenograft dose response: intratumoral and pathologic plasma human VEGF ELISA; type: in vivo
Procedure: Experimental Study Design. HT1080 cells (5×10^6 cells/mouse) were implanted subcutaneously in male athymic nude mice.
Tumor size was measured using calipers at periodic intervals during the study (data shown in Section 9.2.2). […] The study was ended after 18 days, when the vehicle treated tumors reached a mean volume of ˜1755 mm^3. […] Mice were sacrificed, and excised tumors were homogenized in buffer containing protease inhibitors. Both terminal intratumoral and pathologic plasma human VEGF levels were measured using an ELISA that recognizes human VEGF121 and VEGF165 (as described in Section 9.1.1.1). Intratumoral VEGF levels were normalized to the total tumor protein concentration, while pathologic plasma human VEGF levels were expressed in pg/mL of plasma.

HT1080 xenografts = test: HT1080 xenograft selectivity studies: tumor size; type: in vivo, athymic nude mice
Procedure: In all of these experiments, HT1080 cells (5×10^6 cells/mouse) were implanted subcutaneously in male athymic nude mice. When tumors had become established, mice were divided into groups (10 mice/group). […] Tumor size was measured by calipers at the beginning and end of treatment. At the completion of Compound administration, the mice were sacrificed, and excised tumors were assayed by ELISA for intratumoral VEGF or other angiogenic factors using methods analogous to those described in Section 9.1.1.1.

[2] = Phase 1 multiple-dose study in healthy volunteers: pharmacokinetics (Table 28); type: in vivo, human; conditions: for concentration at 24 h / Tmax: human, plasma, oral; for concentration at 24 h: read-out: C24 h
Procedure: Methods. The trial was a Phase 1, randomized, escalating multiple dose, single center study conducted in 2 stages.
Capsules contained 2 mg or 20 mg of active substance.
Capsules contained 20 mg or 25 mg of active substance.
Noncompartmental methods were used to compute Tmax, Cmax, and AUC. Dose proportionality and sex effect were evaluated using ANOVA on log transformed PK parameters using dose, sex, and dose by sex as fixed factors.

[3] = test system: SY5Y orthotopic xenografts; test: Orthotopic SY5Y neuroblastoma tumor model (kidney capsule): tumor weight; type: in vivo
Excerpt: Experimental Design. In orthotopic tumor models, human tumor cells are implanted into the mouse in an organ that corresponds to the location from which the tumors arise. Such models may provide a better predictor of clinical efficacy than injection of tumors into the flanks of nude mice. See Hoffman, Invest. New Drugs 1999, 17(4):343-59. SY5Y neuroblastoma or SKNEP Ewing sarcoma tumor cells (1×10^6 cells/mouse) were implanted into the kidney capsule of female athymic nude mice according to published methods. See Huang et al., Proc. Natl. Acad. Sci. USA 2003, 100(13):7785-90. One week after implantation of each type of tumor, mice were divided into 2 groups and were administered a test Compound as shown in Table 21.
After 5 weeks of treatment, the mice were sacrificed, and the weights of the tumors were assessed.

CYP2C9 = target: T1, CYP2C9 (Homo sapiens, UniProt P11712); test: CYP inhibition: CYP2C9; type: in vitro ADME; conditions: human hepatic microsomes or recombinant isoenzymes
T1 construct: host or cells: human hepatic microsomes or recombinant isoenzyme (not distinguished)
Excerpt: It is possible that in certain clinical trial subjects, such agents may need to be adjusted for dosing or replaced by alternative agents that are not metabolized by CYP2D6, particularly when such agents may have a low therapeutic index.

[4] = test system: HT1080 tumor cells in vivo; test: HT1080 xenograft studies of Compound 1205, Compound #10 and Compound 1330: tumor growth; parameters: species or system athymic nude mice; conditions: Study 24a, 10 mg/kg QD
Excerpt: Experimental Design. HT1080 cells (5×10^6 cells/mouse) were implanted subcutaneously in male athymic nude mice. […] For comparison, Compound #10 was included in this study.

[5] = Oral pharmacokinetics in mice; type: in vivo
Procedure: (§1) The pharmacokinetic evaluations in mice were adjuncts to the primary pharmacodynamic xenograft studies. The evaluations in rats included toxicokinetic assessments in single-dose, 7-day, and 28-day toxicology studies as well as a mass-balance study after a single oral dose of ^14C-Compound #10. The evaluations in dogs included toxicokinetic assessments in 7-day and 28-day toxicology studies. In the studies performed, rodents were dosed once daily with Compound #10 formulated in vehicle and administered via oral gavage.

[6] = Oral pharmacokinetics / toxicokinetics in rats; type: in vivo, Sprague Dawley rats
Procedure: as §1

HT1080 cells = test: Cell cycle analysis by propidium iodide flow cytometry in HT1080 cells (percent cells in S-phase, Table 24); type: cell-based, human; conditions: HT1080, normoxic, 18 hours
Procedure: Experimental Design. […] After treatment, cells were trypsinized, and stained with propidium iodide (PI) dye to measure DNA content of individual cells by flow cytometry. Output comprised histograms showing relative DNA content in 10,000 cells.
While compounds which cause greater than 20% of the cells to accumulate in S-phase at 100 nM are considered active, a larger percentage of cells may be accumulated in S-phase at lower doses depending on the Compound, as shown in FIG. 12 for example.

[7] = all Compound #10 dose groups (0.3-10 mg/kg, oral, 18 days)
[8] = Stage 1, 0.3 mg/kg BID, Day 1, mean
[9] = Stage 1, 0.3 mg/kg BID, Day 7, mean
[10] = Stage 1, 0.6 mg/kg BID, Day 1, mean
[11] = Stage 1, 0.6 mg/kg BID, Day 7, mean
[12] = healthy volunteers, all dose levels

T1 sequence (P11712 whole entry): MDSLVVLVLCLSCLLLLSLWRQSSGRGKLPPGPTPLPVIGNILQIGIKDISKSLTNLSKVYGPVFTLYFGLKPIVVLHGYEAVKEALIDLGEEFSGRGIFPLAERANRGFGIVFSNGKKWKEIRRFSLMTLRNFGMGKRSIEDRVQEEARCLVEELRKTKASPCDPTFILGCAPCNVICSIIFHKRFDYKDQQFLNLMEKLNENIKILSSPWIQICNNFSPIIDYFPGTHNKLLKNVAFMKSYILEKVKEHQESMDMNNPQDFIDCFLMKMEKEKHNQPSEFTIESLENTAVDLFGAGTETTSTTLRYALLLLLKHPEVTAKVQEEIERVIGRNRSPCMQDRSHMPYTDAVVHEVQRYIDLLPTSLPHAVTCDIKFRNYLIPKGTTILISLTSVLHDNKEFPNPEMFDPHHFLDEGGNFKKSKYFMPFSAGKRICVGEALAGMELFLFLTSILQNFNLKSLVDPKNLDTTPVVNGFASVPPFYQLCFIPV

COc1ccc(C2c3[nH]c4ccc(Cl)cc4c3CCN2C(=O)Oc2ccc(Cl)cc2)cc1 (racemic) [Compound #10]
Reduction in tumor and pathologic plasma human VEGF concentrations ([1]; 0.3 mg/kg BID): partial reductions | Pathologic human VEGF levels in plasma [1, 7]: significantly suppressed | Pathologic human VEGF levels in tumors [1, 7]: significantly suppressed | Reduction in tumor and pathologic plasma human VEGF concentrations ([1]; dose levels of ≧1 mg/kg BID): essentially maximal | Final mean Compound #10-treated tumor size (HT1080 xenografts; Study 1: 1 mg/kg oral BID, 28 days): 450 mm^3 | Final mean Compound #10-treated tumor size (HT1080 xenografts; Study 2: 5 mg/kg oral BID, 7 days): 595 mm^3 | Final mean Compound #10-treated tumor size (HT1080 xenografts; Study 3: 5 mg/kg oral BID, 10 days): 735 mm^3 | Final mean Compound #10-treated tumor size (HT1080 xenografts; Study 4: 5 mg/kg oral BID, 9 days): 953 mm^3 | Final mean Compound #10-treated tumor size (HT1080 xenografts; Study 5: 5/50 mg/kg oral BID, 15 days): 1922 mm^3 | Final mean Compound #10-treated tumor size (HT1080 xenografts; Study 6: 5 mg/kg oral QD, 21 days): 750 mm^3 | Final mean Compound #10-treated tumor size (HT1080 xenografts; Study 7: 10 mg/kg oral QD, 42 days): 1770 mm^3 | AUC0-24 [2, 8]: 4310 ng·h/mL | Cmax (after PM dose) [2, 8]: 480 ng/mL | Dose-normalized AUC0-24 [2, 8]: 7.2 µg·h/mL/mg/kg | Dose-normalized Cmax [2, 8]: 0.79 µg/mL/mg/kg | Tmax (after PM dose) [2, 8]: 3.16 h | AUC0-24 [2, 9]: 8440 ng·h/mL | Cmax (after PM dose) [2, 9]: 590 ng/mL | Dose-normalized AUC0-24 [2, 9]: 14.1 µg·h/mL/mg/kg | Dose-normalized Cmax [2, 9]: 0.99 µg/mL/mg/kg | AUC0-24 [2, 10]: 10100 ng·h/mL | Cmax (after PM dose) [2, 10]: 970 ng/mL | Dose-normalized AUC0-24 [2, 10]: 8.4 µg·h/mL/mg/kg | Dose-normalized Cmax [2, 10]: 0.81 µg/mL/mg/kg | Tmax (after PM dose) [2, 10]: 3.17 h | AUC0-24 [2, 11]: 18600 ng·h/mL | Cmax (after PM dose) [2, 11]: 1160 ng/mL | Dose-normalized AUC0-24 [2, 11]: 15.5 µg·h/mL/mg/kg | Dose-normalized Cmax [2, 11]: 0.97 µg/mL/mg/kg | Dose-normalized AUC0-24 ([2]; Stage 1, […] BID, Day 1, mean): 7.5 µg·h/mL/mg/kg | Dose-normalized Cmax ([2]; Stage 1, […] BID, Day 1, mean): 0.82 µg/mL/mg/kg | Cmax (after PM dose) ([2]; Stage 1, […] BID, Day 7, mean): 2470 ng/mL | Dose-normalized AUC0-24 ([2]; Stage 1, […] BID, Day 7, mean): 13.7 µg·h/mL/mg/kg | Dose-normalized Cmax ([2]; Stage 1, […] BID, Day 7, mean): 1.03 µg/mL/mg/kg | Dose-normalized AUC0-24 ([2]; Stage 2, […] TID, Day 1, mean): 7.7 µg·h/mL/mg/kg | Dose-normalized Cmax ([2]; Stage 2, […] TID, Day 1, mean): 0.51 µg/mL/mg/kg | Tmax (after PM dose) ([2]; Stage 2, […] TID, Day 1, mean): 2.50 h | Cmax (after PM dose) ([2]; Stage 2, […] TID, Day 7, mean): 4650 ng/mL | Dose-normalized AUC0-24 ([2]; Stage 2, […] TID, Day 7, mean): 16.4 µg·h/mL/mg/kg | Dose-normalized Cmax ([2]; Stage 2, […] TID, Day 7, mean): 0.98 µg/mL/mg/kg | concentration at 24 h ([2]; both sexes, 0.3 mg/kg, Stage 1, 0.3 mg/kg BID, Day 1, mean): 94 ng/mL | concentration at 24 h ([2]; both sexes, 0.3 mg/kg, Stage 1, 0.3 mg/kg BID, Day 7, mean): 210 ng/mL | concentration at 24 h ([2]; both sexes, 0.6 mg/kg, Stage 1, 0.6 mg/kg BID, Day 1, mean): 260 ng/mL | concentration at 24 h ([2]; both sexes, 0.6 mg/kg, Stage 1, 0.6 mg/kg BID, Day 7, mean): 540 ng/mL | Tmax ([2]; both sexes, healthy volunteers, Stage 1 and Stage 2, read-out: Mean Tmax): ~3 h | Tmax ([2]; both, Stage 1, 1.2 mg/kg BID, Day 1, mean, read-out: Tmax (after PM dose)): 3 h | Oral bioavailability ([2]; healthy volunteers): orally bioavailable | Differences in Cmax or AUC0-24 between males and females ([2]; healthy volunteers, ANOVA): no significant differences | Accumulation (Day 1 to Day 7) when dosed continuously [2, 12]: ~2 fold | Target trough plasma concentration (~0.1 to […]) [2, 12]: achieved and maintained | Lag time until appearance in plasma ([2]; healthy volunteers, oral capsules): ~30 min | Growth of orthotopic SY5Y tumors (tumor weight) ([3]; 5 weeks of treatment): completely prevented growth | Toxicity on observing the animals ([3]; orthotopic SKNEP and SY5Y mice): no evidence of toxicity | Inhibition of CYP2C9 (CYP2C9): No meaningful inhibition | Difference vs. vehicle in median number of days to reach 1000 mm^3 [4]: 8** Days | Mean difference in tumor growth rate at the Day that the vehicle-treated tumors taken off study ([4]; Day 11): 59%** | Final mean terminal tumor size in treatment group ([4]; Xeno): 1460 mm^3 | Oral bioavailability [5]: orally bioavailable | concentration at 24 h ([5]; mouse, plasma, oral, 1-mg/kg dose level, Day 1, read-out: Plasma trough concentration at 24 hours): 100 to 150 ng/mL | Oral bioavailability [6]: orally bioavailable | Concentration from which accumulation of cells in S phase is observed (HT1080 cells): ≥ 1 nM | Effect on cell cycle distribution (FIG. 12, FIG. 24) (HT1080 cells; Compound #10 0.3-100 nM, Compound 1205 10 nM): induced a redistribution of the cycling characteristics
